Reference: article PMC8825254, “Rational design of Striga hermonthica-specific seed germination inhibitors” (Plant Physiology, 2021)

Legend:
OsD14 = target: T1, OsD14 (Oryza sativa subsp. japonica, UniProt Q10QA5); test: YLG hydrolysis competition assay with OsD14; format: biochemical, rice (Oryza sativa); details: Figure 3D-F; mean ± SD, n = 3; no unit printed with values (x-axis µM); read-out: IC50, OsD14-mediated YLG hydrolysis (Figure 3)
T1 construct: made in house; host or cells: Escherichia coli BL21 (DE3)
T1 sequence (Q10QA5 1-318): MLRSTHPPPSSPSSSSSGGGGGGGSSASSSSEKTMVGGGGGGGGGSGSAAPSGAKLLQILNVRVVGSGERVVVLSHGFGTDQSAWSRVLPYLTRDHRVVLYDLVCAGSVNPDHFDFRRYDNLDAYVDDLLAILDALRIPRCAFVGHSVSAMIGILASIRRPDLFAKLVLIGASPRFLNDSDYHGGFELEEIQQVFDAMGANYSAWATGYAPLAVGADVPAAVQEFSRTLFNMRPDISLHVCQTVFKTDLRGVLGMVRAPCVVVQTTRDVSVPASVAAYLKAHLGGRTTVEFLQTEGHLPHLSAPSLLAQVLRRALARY

Rice d17 seedlings = test: Rice micro tillering assay, SL-deficient mutant d17 with GR24; format: in vivo, rice (Oryza sativa); details: compound with 1.0 µM GR24; result in words
Method: Rice seeds of WT (cv Nipponbare) or SL-deficient mutant (d17), were surface sterilized with 2.5% NaClO and 0.05% of Tween-20 for 10 min, and rinsed 6 times with sterilized MilliQ water. About 30 seeds were placed on sterilized Magenta GA-7 plant culture box containing 0.5% MS medium with 0.4% agar and incubated at 30°C in dark. After 2 d, boxes were moved to a growth chamber and allowed to grow for another 5 d under fluorescent white light (130–180 μM m^−2 s^−1). Equally grown seedlings were transplanted in 50-mL black tubes filled with Hoagland nutrient solution (1 seedling/tube). Seedlings were treated with 10, 50, and 100 µM of each compound (KK023-N1, Triton X-100, and KK094). The compounds were applied twice a week for 2 weeks to test their effects on the growth of WT plants. SL-deficient seedlings (d17) were treated as WT but with the addition of 1 µM GR24. Number of tillers per plant, plant height, and dry biomass were measured at final harvest.

ShHTL7 = target: T2, ShHTL7 (Striga hermonthica, UniProt A0A0M3PNA2); test: YLG hydrolysis competition assay with ShHTL7; format: biochemical
T2 sequence (A0A0M3PNA2 1-271): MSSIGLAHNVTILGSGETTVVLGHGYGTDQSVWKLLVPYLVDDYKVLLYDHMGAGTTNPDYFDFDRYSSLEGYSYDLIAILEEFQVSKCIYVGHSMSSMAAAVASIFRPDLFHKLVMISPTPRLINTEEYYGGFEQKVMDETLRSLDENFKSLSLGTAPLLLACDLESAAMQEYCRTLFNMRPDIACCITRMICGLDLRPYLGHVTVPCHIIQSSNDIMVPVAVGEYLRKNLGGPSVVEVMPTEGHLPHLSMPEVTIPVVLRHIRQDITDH
Method: About 0.33 µM of ShHTL7 protein was used to conduct in vitro hydrolysis of YLG (1 µM) as a substrate in a total volume of 100 µL of phosphate-buffered saline (1× PBS) containing 0.1% DMSO in 96-well black plate (Greiner Kremsmünster, Austria; [Tsuchiya et al., 2015]). The hydrolysis of YLG over time and changes in the fluorescence intensity was measured by SpectraMax i3 (Molecular Devices, San Jose, CA, USA) using an excitation wavelength of 480 nm and detection wavelength of 520 nm and recorded at 10 min intervals for 2 h. YLG in 1× PBS without protein was used as a control. […] Measurement of the fluorescence was conducted in SpectraMax i3 (Molecular Devices) using the above-mentioned method. The relative fluorescence unit was calculated by subtracting the auto-fluorescence of YLG in the buffer from the fluorescence values of YLG in the presence of a protein. The inhibitory curve and IC50 were determined using https://www.aatbio.com/tools/ic50-calculator website.

Compound: COc1ccc(CCCc2cccc3c2CCN3C(=O)n2ccnn2)cc1 [KK023-N1]
- IC50 (OsD14): 29.6 ± 3.77 µM
- Effect on GR24 action on tillering of d17 rice (Rice d17 seedlings): did not block the GR24 effect on rice tillers
- IC50 (ShHTL7): 1.78 µM
